From paper PMC10787068, “Targeting the Mitochondrial Chaperone TRAP1 Alleviates Vascular Pathologies in Ischemic Retinopathy” (Advanced Science, 2023)

Assays:
HIF1α = HIF1α degradation in MIO‐M1 cells under hypoxia (western blotting); format: cell-based, human; conditions: MIO‐M1 cells, 6 h under hypoxia
MIO‐M1 cells = test: Cytoplasmic calcium (Fluo‐4 AM) in MIO‐M1 cells; format: cell-based, human; conditions: Fluo‐4 AM‐labeled MIO‐M1 cells under hypoxia; MitoQ 6 h, thapsigargin 30 min
Experimental: (§1) Figure 5 TRAP1 inhibition induces mPTP opening, mitochondrial calcium discharge, and calpain‐1 activation. A) Visualization of cytoplasmic calcium. Fluo‐4 AM‐labeled MIO‐M1 cells were incubated with the TRAP1 inhibitors gamitrinib and MitoQ^[ [32], [41] ^] for 6 h or thapsigargin for 30 min under hypoxia, and analyzed by confocal microscopy. Scale bars, 10 µm and 2 µm (inset). […] MIO‐M1 cells were treated with a TRAP1 inhibitor, 3 µM gamitrinib or 0.5 µM MitoQ, for 6 h under hypoxia (n = 4). Enzyme activity was measured using a fluorogenic calpain substrate as described in the Experimental Section. C) Restored HIF1α expression upon CypD inhibition. MIO‐M1 cells were incubated with control or CypD‐targeting siRNAs, treated with the TRAP1 inhibitor MitoQ for 6 h under hypoxia, harvested, and analyzed by western blotting. Black and red arrows indicate pro and autolyzed forms of calpain‐1, respectively. […] MIO‐M1 cells were incubated with TRAP1‐targeting siRNAs for 48 h, exposed to hypoxia for 6 h, harvested, and analyzed by qPCR (n = 4). […] Cells were then analyzed by flow cytometry to detect cytoplasmic calcium. […] MIO‐M1 cells were incubated with TRAP1 inhibitors, 3 µM gamitrinib, and 0.5 µM MitoQ, and a cell‐permeable calcium chelator, BAPTA (10 µM), for 6 h as indicated under hypoxia and analyzed by western blotting. […] Data information: Data are expressed as mean ± SEM. […]

calpain = test: Calpain activity assay in MIO‐M1 cells; format: cell-based, human; conditions: 3 µM gamitrinib or 0.5 µM MitoQ, 6 h under hypoxia, fluorogenic calpain substrate, n = 4
Experimental: as §1

[1] = system: 3D human corneal epithelial (HCE) model, MCTT HCE; test: Eye irritation test with MCTT HCE (OECD test guideline 492); format: cell-based; conditions: 3D culture MCTT HCE, TRAP1 inhibitors at 2 mM, H&E staining images, n = 5, mean ± SEM
Experimental: (§2) An eye irritation test was performed using a 3D human corneal epithelial (HCE) model, called MCTT HCE (KeraSkin; Biosolution, Seoul, Republic of Korea), for OECD test guideline 492, following the manufacturer's instructions. In brief, HCE tissues were incubated overnight in medium provided by the supplier. Thereafter, 2 mM MitoQ, SB‐U014, and SB‐U015 were applied to the upper epithelial surface of HCE tissues and incubated for 10 min. After removing the drugs by washing the tissues with PBS, the tissues were further incubated for 16 h, and then subjected to the WST‐1 assay for viability assessment and fixed in 4% PFA for histological analysis. […]
(§3) their cytotoxic activities were analyzed in four independent experiments by trypan blue staining. The calculated IC50 values are presented in the normal cell cytotoxicity column in Table 1. […] A 3D culture of human corneal epithelium (MCTT HCE) was incubated with 2 mM TRAP1 inhibitors and analyzed by H&E staining.
(§4) The culture thickness (n = 5) was measured and analyzed (Table S1). […] After topical application of 2 mM MitoQ, SB-U014, or SB-U015 once daily for 6 days, the mouse cornea was harvested and analyzed by H&E staining. […]
(§5) A 3D culture of human corneal epithelium (MCTT HCE) was incubated with 2 mM TRAP1 inhibitors, and the percentage viability was analyzed by the WST-1 assay (n = 4). Absorbance was measured with a microplate reader. […]

[2] = as above; format: cell-based, human; conditions: human; 3D culture MCTT HCE, TRAP1 inhibitors at 2 mM, WST-1 assay, n = 4, mean ± SEM; read-out: Percentage viability (%)
Experimental: as §2, §3, §4, §5

[3] = system: mouse primary Müller cells; test: Normal cell cytotoxicity in primary Müller cells (trypan blue staining); format: cell-based; conditions: 24 hr under hypoxia, n = 4, mean ± SEM
Experimental: Mouse primary Müller cells were isolated as reported previously.^[ [43] ^] In brief, retinas were isolated from P5–P7 mice and dissociated using a Papain Dissociation Kit (Worthington Industries; Columbus, OH, USA). Collected retinal cells were incubated on a plate coated with 0.1% gelatin (Sigma), and the culture media (DMEM supplemented with 10% FBS and 1% penicillin‐streptomycin) was changed once every 2 days. Cells were subcultured into a new plate and incubated for another 7 days. Adherent cells were largely primary Müller cells, as confirmed by immunocytochemical analysis using an anti‐glutamine synthetase antibody (Millipore). […]
bar, 500 μm. B) Quantification of avascular and neovascular tuft areas in OIR mice intravitreally injected with MitoQ (n = 5 mice/group). […] Harvested retinal samples were whole-mounted and analyzed as in (A). […]
Scale bar, 500 μm. D) Quantification of avascular and neovascular tuft areas in OIR mice topically treated with MitoQ (n = 6 mice/group). […]
as §3
The culture thickness (n = 5) was measured and analyzed (Table S1). […]

In the case of COC1=C(OC)C(=O)C(CCCCCCCCCC[P+](c2ccccc2)(c2ccccc2)c2ccccc2)=C(C)C1=O [MitoQ, mitoquinone], the IC50 (HIF1α; Homo sapiens, western blot band intensity, n = 4, mean ± SEM) is reported as 0.077 ± 0.016 µM, the “potency in inducing the degradation of HIF1α relative to gamitrinib” value (HIF1α) is reported as “more than 10 fold” and the cytoplasmic calcium (MIO‐M1 cells) is reported as “Modestly elevated”. For the same compound, the calpain enzyme activity (calpain) was “Calpain activation”, the “Thickness (μm)” value [1] was 53.43 ± 2.79 μm and the viability at 10 min, 2 mM [2] was 63.47 ± 0.23%. It also gave an IC50 [3] of 22.5 ± 0.46 µM.
